pIC50, pKi: −log10 of the molar value. Read-outs that look alike come from different tables or passages of the source.
Columns and labels:
[1] = biological target: Purified human alpha-thrombin (Homo sapiens, UniProt P00734); assay: in vitro thrombin inhibition assay, IC50 (chromogenic substrate Pefachrome t-PA); format: biochemical; settings: Table 1; 0.25 nM thrombin, 300 μM substrate, pH 7.5, 30 minute incubation
Description: (§1) The ability of the compounds of the present invention to act as inhibitors of thrombin and plasmin catalytic activity was assessed by determining the concentration which inhibited enzyme activity by 50%, (IC50), using the purified human enzymes.
(§2) The buffer used for all assays was HBSA (10 mM HEPES, pH 7.5, 150 mM sodium chloride, 0.1% bovine serum albumin).
(§3) The assay for IC50 determinations was conducted by combining in appropriate wells of a Corning microtiter plate, 50 microliters of HBSA, 50 microliters of the test compound at a specified concentration (covering a broad concentration range) diluted in HBSA (or HBSA alone for Vo (uninhibited velocity) measurement), and 50 microliters of the enzyme diluted in HBSA. Following a 30 minute incubation at ambient temperature, 50 microliters of the substrate at the concentrations specified below, was added to the wells yielding a final total volume of 200 microliters. The initial velocity of chromogenic substrate hydrolysis was measured by the change in absorbance at 405 nm using a Thermo Max® Kinetic Microplate Reader over a 5 minute period in which less than 5% of the added substrate was utilized. The concentration of added inhibitor which caused a 50% decrease in the initial rate of hydrolysis was defined as the IC50 value.
Thrombin catalytic activity was determined using the chromogenic substrate Pefachrome t-PA (CH3 SO2 -D-hexahydrotyrosine-glycyl-L-arginine-p-nitroaniline, obtained from Pentapharm Ltd.). The substrate was made up in deionized water followed by dilution in HBSA prior to the assay in which the final concentration was 300 μM (about 10-times Km). Purified human alpha-thrombin was obtained from Enzyme Research Laboratories, Inc. The enzyme was diluted into HBSA prior to the assay in which the final concentration was 0.25 nM.

[2] = system: rat carotid artery; assay: Rat model of FeCl3-induced platelet-dependent arterial thrombosis; format: in vivo, rat (Male Harlan Sprague Dawley); settings: for ED50: read-out: ED50 for thrombus prevention
[3] = system: human plasma; assay: activated partial thromboplastin time (APTT) in citrated human plasma; format: biochemical; settings: control clotting time 28.3 sec
Description: (§4) The ex Vivo anticoagulant effects of BzlSO2 -Met[S(O2)]-Pro-Arg-al was determined by measuring the prolongation of the activated partial thromboplastin time (APTT) over a broad concentration range of the added inhibitor, using pooled normal human and rat plasma. Fresh frozen citrated pooled normal human plasma was obtained from George King Biomedical, Overland Park, Kans. Pooled normal rat plasma was prepared from citrated whole blood collected from anesthetized rats using standard procedures. The plasma was flash frozen and stored at -80° C. until use. Measurements APTT was made using the Coag-A-Mate RA4 automated coagulometer (General Diagnostics, Organon Technica, Oklahoma City, Okla.) using the Automated APTT reagent (Organon Technica, Durham, N.C.) as the initiator of clotting according to the manufacturer's instructions.
(§5) The assay was conducted by making a series of dilutions of the test compounds in rapidly thawed plasma followed by adding 200 microliters to the wells of the assay carousel.
(§6) The elevation in APTT due to increasing concentration of compound is presented relative to the control clotting time for rat (19.75 sec) and human (28.3 sec) plasma which is set to a value of 1.0.

[4] = biological target: human alpha-thrombin (Homo sapiens, UniProt P00734); assay: Determination of inhibition constant Ki for thrombin (steady state velocities, Pefachrome t-PA); format: biochemical
Description: The ability of the compounds of the present invention to act as inhibitors of thrombin catalytic activity was assessed by determining their inhibition constant, Ki.
Enzyme activity was determined using the chromogenic substrate Pefachrome t-PA (CH3 SO2 -D-hexahydrotyrosine-glycyl-L-arginine-p-nitroaniline), obtained from Pentapharm Ltd. The substrate was reconstituted in deionized water prior to use. Purified human alpha-thrombin (3000U/mg specific activity) was obtained from Enzyme Research Laboratories, Inc. The buffer used for all assays was HBSA (10 mM HEPES, pH 7.5, 150 mM sodium chloride, 0.1% bovine serum albumin).
Velocities of chromogenic substrate hydrolysis which occurred over 40 minutes was measured by the change in absorbance at 405 nm using a Thermo Max® Kinetic Microplate Reader.
Ki values were determined for test compounds using the relationships developed by Williams and Morrison, Methods in Enzymology, 63:437 (1979) using steady state velocities (Vs) measured over 40 minutes. The extent of substrate hydrolysis was less than 5% over the course of this assay.
Table 2 below gives the Ki values for selected test compounds.

[5] = biological target: Purified human plasmin (Homo sapiens, UniProt P00747); assay: in vitro plasmin inhibition assay, IC50 (chromogenic substrate S-2251); format: biochemical; settings: Table 1; 1.0 nM plasmin, 300 μM substrate, pH 7.5, 30 minute incubation
Description: as §1, §2, §3
Plasmin catalytic activity was determined using the chromogenic substrate, S-2251 [D-valyl-L-leucyl-L-lysine-p-nirtoanilide dihydrochloride], which was obtained from Kabi Diagnostica. The substrate was made up in deionized water followed by dilution in HBSA prior to the assay in which the final concentration was 300 μM (about 5-times Km). Purified human plasmin was obtained from Enzyme Research Laboratories, Inc. The enzyme was diluted into HBSA prior to assay in which the final concentration was 1.0 nM.

[6] = system: rat plasma; assay: activated partial thromboplastin time (APTT) in citrated rat plasma; format: biochemical; settings: control clotting time 19.75 sec
Description: as §4, §5, §6

[7] = Table 2, human alpha-thrombin 0.5 nM, steady state velocities over 40 minutes, read-out: Inhibitor Constants (Ki)

Purified human plasmin, sequence (P00747 581-810 limits assumed): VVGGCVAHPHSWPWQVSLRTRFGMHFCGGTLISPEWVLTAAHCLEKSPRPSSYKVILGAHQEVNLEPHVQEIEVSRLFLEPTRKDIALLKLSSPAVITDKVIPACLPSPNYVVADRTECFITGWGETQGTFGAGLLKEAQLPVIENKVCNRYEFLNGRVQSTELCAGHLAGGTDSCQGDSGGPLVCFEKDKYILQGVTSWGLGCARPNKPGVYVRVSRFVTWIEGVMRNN
Purified human plasmin, sequence (P00747 97-580 limits assumed): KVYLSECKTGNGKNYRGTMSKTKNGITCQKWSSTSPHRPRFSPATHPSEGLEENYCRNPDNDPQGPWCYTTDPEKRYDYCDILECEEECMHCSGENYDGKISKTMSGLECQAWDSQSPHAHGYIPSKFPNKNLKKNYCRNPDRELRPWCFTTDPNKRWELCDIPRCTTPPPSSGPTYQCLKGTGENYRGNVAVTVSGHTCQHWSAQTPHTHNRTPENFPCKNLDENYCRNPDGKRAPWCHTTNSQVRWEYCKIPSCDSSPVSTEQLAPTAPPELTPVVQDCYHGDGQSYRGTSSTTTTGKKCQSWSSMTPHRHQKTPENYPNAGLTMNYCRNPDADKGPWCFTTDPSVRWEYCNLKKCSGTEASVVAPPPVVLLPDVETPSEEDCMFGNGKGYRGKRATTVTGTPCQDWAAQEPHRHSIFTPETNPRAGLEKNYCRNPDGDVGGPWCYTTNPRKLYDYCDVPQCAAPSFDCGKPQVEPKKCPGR

pIC50 [1]	pIC50 [5]	SMILES	further results
8.77	5.60 to 6.60	N=C(N)NCCC[C@@H](C=O)NC(=O)[C@@H]1CCCN1C(=O)[C@H](CS(=O)(=O)Cc1ccc(C(=O)O)cc1)NS(=O)(=O)Cc1ccccc1 [Example 139, N-benzylsulfonamide-L-cysteine-S-sulfone-(p-toluic acid) -L-proline-argininal aldehyde]	–
9.09	6.70	COC(=O)c1ccccc1S(=O)(=O)N[C@@H](CCS(C)(=O)=O)C(=O)N1CCC[C@H]1C(=O)N[C@H](C=O)CCCNC(=N)N [2-CMPhSO2 --Met[S(O2)]--Pro--Arg-al]	–
8.51	6.60	CS(=O)(=O)C[C@H](NS(=O)(=O)c1cccc2ccccc12)C(=O)N1CCC[C@H]1C(=O)N[C@H](C=O)CCCNC(=N)N [Example 49, N-(1-naphthalenesulfonyl)-S-methyl-L-cysteine sulfone-L-proline-L-argininal]	–
7.89	6.31	N=C(N)NCCC[C@@H](C=O)NC(=O)[C@@H]1CCCN1C(=O)[C@H](CS(=O)(=O)CC(=O)O)NS(=O)(=O)Cc1ccccc1 [Example 56, N-benzylsulfonyl-S-(carboxymethyl)-L-cysteine sulfone-L-proline-L-argininal]	–
8.52	6.96	CCCCS(=O)(=O)N[C@@H](CS(=O)(=O)CC(=O)O)C(=O)N1CCC[C@H]1C(=O)N[C@H](C=O)CCCNC(=N)N	–
9.25	7.21	COC(=O)CS(=O)(=O)C[C@H](NS(=O)(=O)c1ccc2ccccc2c1)C(=O)N1CCC[C@H]1C(=O)N[C@H](C=O)CCCNC(=N)N [Example 69, N-(2-naphthylenesulfonyl)-S-(methyl acetate)-L-cysteine sulfone-L-proline-L-argininal]	–
9.11	< 7.60	CS(=O)(=O)CC[C@H](NS(=O)(=O)c1cccc2ccccc12)C(=O)N1CCC[C@H]1C(=O)N[C@H](C=O)CCCNC(=N)N [Example 21, N-(1-naphthylenesulfonyl)-L-methionine sulfone-L-proline-L-argininal]	–
8.85	< 6.60	CS(=O)(=O)C[C@H](NS(=O)(=O)c1ccc2ccccc2c1)C(=O)N1CCC[C@H]1C(=O)N[C@H](C=O)CCCNC(=N)N [Example 46, N-(2-naphthalenesulfonyl)-S-methyl-L-cysteine sulfone-L-proline-L-argininal]	–
9.24	7.46	CS(=O)(=O)CC[C@H](NS(=O)(=O)c1ccc2ccccc2c1)C(=O)N1CCC[C@H]1C(=O)N[C@H](C=O)CCCNC(=N)N [Example 24, N-(2-naphthylenesulfonyl)-L-methionine sulfone-L-proline-L-argininal]	pKi [4, 7]: 9.87

Further lines, the compound ahead of its results:

SMILES	pIC50 [1]	pIC50 [5]	further results
CS(=O)(=O)CC[C@H](NS(=O)(=O)Cc1ccccc1)C(=O)N1CCC[C@H]1C(=O)N[C@H](C=O)CCCNC(=N)N [Example 27, N-benzylsulfonyl-L-methionine sulfone-L-proline-L-argininal]	9.00	7.07	incidence of thrombotic occlusion (in words) ([2]; FeCl3 model, rat, over all doses of Table 3): reduction in the incidence of thrombotic occlusion; ED50 ([2]; Rattus norvegicus): 0.7 mg/kg; prolongation of APTT [3]: prolonged the APTT in a dose dependent manner; pKi [4, 7]: 8.97; pKi ([4]; Table 4, determined using human alphathrombin (footnote a), read-out: Ki): 8.97; prolongation of APTT [6]: prolonged the APTT in a dose dependent manner
CCCC(CCC)C(=O)N[C@@H](CS(=O)(=O)Cc1ccc(C(=O)O)cc1)C(=O)N1CCC[C@H]1C(=O)N[C@H](C=O)CCCNC(=N)N [Example 144, N-2-propylpentylamide-L-cysteine-S-sulfone (p-toluic acid) -L-proline-arginal aldehyde]	9.13	6.41	–
CS(=O)(=O)CC[C@H](NS(=O)(=O)CC1CCCCC1)C(=O)N1CCC[C@H]1C(=O)N[C@H](C=O)CCCNC(=N)N [Example 18, N-cyclohexylmethanesulfonyl-L-methionine sulfone-L-proline-L-argininal]	9.18	7.52	–
CC1(C)[C@@H]2CC[C@@]1(CS(=O)(=O)N[C@@H](CCS(C)(=O)=O)C(=O)N1CCC[C@H]1C(=O)N[C@H](C=O)CCCNC(=N)N)C(=O)C2 [d-Camphor--SO2 --Met[S(O2)]--Pro--Arg-al]	8.59	7.52	–
CCCCS(=O)(=O)N[C@@H](CS(C)(=O)=O)C(=O)N1CCC[C@H]1C(=O)N[C@H](C=O)CCCNC(=N)N [Example 40, N-(1-butanesulfonyl)-S-methyl-L-cysteine Sulfone-L-proline-L-argininal]	8.74	< 6.60	–
N=C(N)NCCC[C@@H](C=O)NC(=O)[C@@H]1CCCN1C(=O)[C@H](CSCC(=O)O)NS(=O)(=O)Cc1ccccc1	7.89	6.31	–
CCCC(CCC)C(=O)N[C@@H](CCS(C)(=O)=O)C(=O)N1CCC[C@H]1C(=O)N[C@H](C=O)CCCNC(=N)N [Example 33, N-(2-propylpentanoyl)-L-methionine sulfone-L-proline-L-argininal]	8.26	6.30	pKi [4, 7]: 8.40
CCCC(CCC)C(=O)N[C@@H](CS(=O)(=O)CC(=O)O)C(=O)N1CCC[C@H]1C(=O)N[C@H](C=O)CCCNC(=N)N [Example 59, N-(2-propylpentanoyl)-S-(carboxymethyl)-L-cysteine sulfone-L-proline-L-argininal]	8.80	6.66	–
CCCC(CCC)C(=O)N[C@@H](CS(C)(=O)=O)C(=O)N1CCC[C@H]1C(=O)N[C@H](C=O)CCCNC(=N)N [Example 43, N-(2-propylpentanoyl)-S-methyl-L-cysteine sulfone-L-proline-L-argininal]	8.29	5.55	–
CC1CNc2c(cccc2S(=O)(=O)N[C@@H](CCCNC(=N)N)C(=O)N2CC[C@@H](C)C[C@@H]2C(=O)O)C1 (stereo partly drawn) [Argatroban, 2R,4R-4-methyl-1-[N-2-(3-methyl-1,2,3,4-tetrahydro-8-quinolinesulfonyl)-L-argininal]-2-piperdinecarboxylic acid, reference compound]	–	–	ED50 ([2]; dose that prevents the incidence of complete thrombotic occlusion in 50% of animals tested, FeCl3 model, rat): 3.8 mg/kg
CCCCS(=O)(=O)N[C@@H](CCS(C)(=O)=O)C(=O)N1CCC[C@H]1C(=O)N[C@H](C=O)CCCNC(=N)N [Example 11, N-(1-butanesulfonyl)-L-methioninesulfone-L-proline-L-argininal]	8.80	6.70	–
CS(=O)(=O)CC[C@H](NS(=O)(=O)NC1CCCCC1)C(=O)N1CCC[C@H]1C(=O)N[C@H](C=O)CCCNC(=N)N [ChxNH--SO2 --Met[S(O2)]--Pro--Arg-al]	6.84	5.59	–

Reference: patent publication US5658939A, “Methionine sulfone and S-substituted cysteine sulfone derivatives as enzyme inhibitors” (Corvas International Inc., priority 1995, dated 1997)
